We go through one compound from patent US10577395B2 (priority 2014, dated 2020).

The conditions of experiment [1]: relative to D-Ala-D-Ala; cited from earlier work.
Experiment [2] relates to vancomycin-sensitive Staphylococcus aureus (VSSA strain ATCC 25923). The experiment is described as follows: Antimicrobial assay, MIC, vancomycin-sensitive S. aureus. It counts as cell-based. The following applies: ATCC 25923. The method, then:
(§1) Assays were carried out following the methods of Clinical and Laboratory Standards Institute; Methods for Dilution Antimicrobial Susceptibility Tests for Bacteria That Grow Aerobically; Approved Standard, […].; CLSI document M07-A8; Clinical and Laboratory Standards Institute: Wayne, Pa., 2009.
(§2) This diluted bacterial stock solution was then inoculated into a well of a V-shaped 96-well glass coated microtiter plate, supplemented with serial diluted aliquots of the antibiotic solution DMSO (4 μL), to achieve a total assay volume of 0.1 mL. The plate was then incubated at 37° C. for 18 hours, after which minimal inhibitory concentrations (MICs) were determined by monitoring the cell growth (observed as a pellet) in the wells. The lowest concentration of antibiotic (in μg/mL) capable of eliminating the cell growth in the wells is reported as the MIC.

Experiment [3] concerns vancomycin-resistant Enterococcus faecalis (VanA VRE, BM4166). The experiment is described as follows: microbe, parasite or virus in culture. The format is cell-based. Particulars: BM 4166. As for the experimental part: as §1, §2
The subject of experiment [4] is vancomycin-resistant Enterococcus faecalis (VanB VRE, strain ATCC 51299). The experiment is described as follows: microbe, parasite or virus in culture. It counts as cell-based. The following applies: ATCC 51299. As for the experimental part:
as §1, §2

For experiment [5], the system named is methicillin and oxacillin-resistant Staphylococcus aureus subsp. aureus (MRSA strain ATCC 43300). The experiment can be described thus: Antimicrobial assay, MIC, MRSA. The format is cell-based. Particulars: ATCC 43300. As for the experimental part:
as §1, §2

Experiment [6] concerns vancomycin-sensitive strain of E. faecium. Particulars: Kahne et al., Chem. Rev. 2005; cited from earlier work.
The next experiment has as its system VSSA and MRSA. The experiment can be described thus: Antimicrobial assay, MIC for VSSA and MRSA together. It counts as cell-based, S. aureus. Particulars: one value stated for both strains. As for the experimental part:
as §1, §2

Experiment [7] has as its system Enterococcus faecium (VanA VRE, ATCC BAA-2317). The experiment can be described thus: Antimicrobial assay, MIC, VanA E. faecium. The format is cell-based. Particulars: ATCC BAA-2317. As for the experimental part:
as §1, §2

The subject of a further experiment is VanA VRE. The experiment can be described thus: Antimicrobial assay, MIC for VanA VRE. It counts as cell-based, E. faecalis and E. faecium. Particulars: stated for VanA VRE. The method, then: as §1, §2

≈ marks a conversion by molar mass, not a printed value.

For the compound `CN[C@H](CC(C)C)C(=O)N[C@H]1C(=O)N[C@@H](CC(N)=O)C(=O)N[C@H]2C(=O)N[C@H]3C(=O)N[C@H](C(=O)N[C@H](C(=O)O)c4cc(O)cc(O)c4-c4cc3ccc4O)[C@H](O)c3ccc(c(Cl)c3)Oc3cc2cc(c3O[C@@H]2O[C@H](CO)[C@@H](O)[C@H](O)[C@H]2O[C@H]2C[C@](C)(N)[C@H](O)[C@H](C)O2)Oc2ccc(cc2Cl)[C@H]1O` [Compound 1, vancomycin, reference compound], the “reduction of binding affinity for the altered ligand D-Ala-D-Lac” value in [1] is listed as 1000 fold. In addition, the “MIC, sensitive S. aureus” value in experiment [2] is 0.5 mg/L (≈ 0.345 µM). Besides, in experiment [2] (10%), the “MIC, sensitive S. aureus, serum concentration 10%” value is 0.5 mg/L (≈ 0.345 µM). Besides, the “MIC, sensitive S. aureus, serum concentration 25%” value in [2] (25%) is 0.5 mg/L (≈ 0.345 µM). Besides, in experiment [2] (100%), the “MIC, sensitive S. aureus, serum concentration 100%” value was determined as 0.5 mg/L (≈ 0.345 µM). The “MIC, VanA E. faecalis” value in [3] is 250 mg/L (≈ 173 µM). Besides, in experiment [3] (10%), the “MIC, Van A E. faecalis, serum concentration 10%” value stood at 250 mg/L (≈ 173 µM). For the same compound, the “MIC, Van A E. faecalis, serum concentration 25%” value in experiment [3] (25%) was 250 mg/L (≈ 173 µM). Also, the “MIC, Van A E. faecalis, serum concentration 100%” value in [3] (100%) amounted to 500 mg/L (≈ 345 µM). For the same compound, the “MIC, VanB E. faecalis” value in experiment [4] turned out to be 8 mg/L (≈ 5.52 µM). In addition, in experiment [4] (10%), the “MIC, Van B E. faecalis, serum concentration 10%” value amounted to 4 mg/L (≈ 2.76 µM). For the same compound, in [4] (25%), the “MIC, Van B E. faecalis, serum concentration 25%” value turned out to be 8 mg/L (≈ 5.52 µM). Further, in experiment [4] (100%), the “MIC, Van B E. faecalis, serum concentration 100%” value is 32 mg/L (≈ 22.1 µM). Moreover, the “MIC, MRSA S. aureus” value in experiment [5] came to 0.5 mg/L (≈ 0.345 µM). The “MIC, MRSA S. aureus, serum concentration 10%” value in [5] (10%) was found to be 0.5 mg/L (≈ 0.345 µM). Further, the “MIC, MRSA S. aureus, serum concentration 25%” value in experiment [5] (25%) came to 0.5 mg/L (≈ 0.345 µM). Besides, the “MIC, MRSA S. aureus, serum concentration 100%” value in experiment [5] (100%) came out at 1 mg/L (≈ 0.69 µM). Further, the “MIC, vancomycin-sensitive strain of E. faecium” value in experiment [6] is 1 mg/L. For the same compound, in the experiment with VSSA and MRSA, the “MIC against VSSA and MRSA” value stood at 0.5 mg/L (≈ 0.345 µM). Besides, the “MIC, VanA E. faecium” value in experiment [7] came out at 250 mg/L (≈ 173 µM). Moreover, the “MIC, Van A E. faecium, serum concentration 10%” value in [7] (10%) was 250 mg/L (≈ 173 µM). For the same compound, the “MIC, Van A E. faecium, serum concentration 25%” value in experiment [7] (25%) turned out to be 250 mg/L (≈ 173 µM). Further, the “MIC, Van A E. faecium, serum concentration 100%” value in experiment [7] (100%) worked out at 500 mg/L (≈ 345 µM). Moreover, the “MIC against VanA VRE” value against VanA VRE came out at 250 mg/L (≈ 173 µM).
